For data set [1], the system named is HL-60 cells. In words: Cytotoxicity in human leukemia cells (HL-60), tritiated thymidine uptake. Type of data set: cell-based. Conditions: for IC50, inhibition of DNA synthesis (tritiated thymidine uptake): 90 minutes at 37 C. The procedure: The structure and identification of the seven isolated compounds was then determined using NMR. […] Verification after NMR was made by comparing mass spectra with the literature and by comparing the spectra with authentic compounds using thin layer chromatography. […] Using a well-established screening assay for cytotoxicity, the compounds were tested in a human leukemia cell line (HL-60) for their ability to inhibit growth of these cells in culture. This assay is routinely used by those of skill to determine the potential anti-carcinogenic activity of chemicals where anti-carcinogenic activity is correlated with growth inhibitory activity in HL-60 cells. Uptake of tritiated thymidine into cells, a measure of the level of DNA synthesis and thus cell growth, was determined in the cells both with and without the presence of each of the seven blueberry extract compounds.
HL-60 cells were cultivated in 1.62% RPMI 1640 medium supplemented with 10% fetal calf serum and 1% penicillin-streptomycin. The concentration of the cells in the medium was kept between 2 and 10×10^5 counts/ml. Cell concentrations were counted at the beginning of each experiment with a microscope. Cells were washed without antibiotics and collected by centrifugation. The cells were then diluted to 3×10^5 counts/ml with cold medium without antibiotics. Tritiated thymidine was mixed into the cold medium at a concentration of 150 Ci/mmol. The samples to be tested were dissolved in DMSO at concentrations between 0.1 g/L and 50 ug/L. A 2 microliter sample of each concentration was added to 6 ml tubes, using triplicate tubes for reproducibility. A 1 ml sample of the HL-60 cell culture was added to each tube, […]. The tubes were incubated at 37 C for 90 minutes and then cooled over ice. Cold PBS was added to each tube and they were centrifuged at 1000 rpm for 5 minutes. The supernatant was discarded and distilled water mixed with the cells. Free and bound tritiated thymidine levels were measured by scintillation counting.

A short description of data set [2]: Rancimat test, oxidative stability of lard. Conditions: for Induction Time / Anti-oxidant Index: lard samples; for Anti-oxidant Index: lard negative control = 1.00. The procedure: The potential anti-oxidative properties of the seven compounds was also tested. Experiments were performed using the Rancimat method, a common method for measurement of anti-oxidant activity of both synthetic and natural anti-oxidants. The method is based on measuring changes in electrical conductivity of water caused by the formation of short-chain compounds when fats and oils are oxidized under elevated temperature and accelerated aeration. Using lard samples, the effects of each of the seven compounds on the oxidative stability of lard was determined. The anti-oxidative activity levels of the compounds isolated from blueberry are shown below in Table 1. The levels of anti-oxidant activity can be compared with a known anti-oxidant compound BHT.

Data set [3] concerns human colon (HCT-8) tumor cells. Conditions: cited from earlier work.

SMILES strings stand for the structures.

`C[C@@H]1CC[C@]2(C(=O)O)CC[C@]3(C)C(=CC[C@@H]4[C@@]5(C)CC[C@H](O)C(C)(C)[C@@H]5CC[C@]43C)[C@@H]2[C@]1(C)O` [3β,19α-Dihydroxy-urs-12-en-28-oic Acid, 3β,19α-dihydroxy-urs-12-en-28-oic acid]: in data set [1], the “inhibition of DNA synthesis / cell growth in HL-60 cells (in words)” value was “effectively inhibit DNA synthesis” and the “IC50, inhibition of DNA synthesis (tritiated thymidine uptake)” value is recorded as 1 ppm. Also, in data set [2], the “Induction Time” value stood at 2.2 h and the “Anti-oxidant Index” value came to 1.05.

With `O=Cc1ccc(CO)o1` [5-Hydroxymethyl-2-furfural, 5-hydroxymethyl-2-furfural], in data set [2], the “Induction Time” value stood at 2.1 h and the “Anti-oxidant Index” value was determined as 1.00.

Consider `Cc1cc(C(C)(C)C)c(O)c(C(C)(C)C)c1` [BHT, reference compound], for which, in data set [2], the “Induction Time” value was determined as 5.8 h and the “Anti-oxidant Index” value is reported as 2.76.

Turning to `O=C(O)c1cc(O)c(O)c(O)c1` [Gallic Acid, gallic acid], in data set [2], the “oxidation-inhibition activity (in words)” value was “high oxidation-inhibition activity”, the “Induction Time” value came out at 28.1 h and the “Anti-oxidant Index” value is listed as 13.38.

Take `O=C(O)c1ccc(O)c(O)c1` [Protocatechuic Acid, protocatechuic acid]: in data set [2], the “oxidation-inhibition activity (in words)” value is on record as “high oxidation-inhibition activity”, the “Induction Time” value came out at 18.5 h and the “Anti-oxidant Index” value is on record as 8.81.

With `CC[C@H](CC[C@@H](C)[C@H]1CC[C@H]2[C@@H]3CC=C4C[C@@H](O[C@@H]5O[C@H](CO)[C@@H](O)[C@H](O)[C@H]5O)CC[C@]4(C)[C@H]3CC[C@]12C)C(C)C` [Sitosterol-β-D-glucoside, sitosterol-β-D-glucoside], in data set [2], the “Induction Time” value stood at 2.4 h and the “Anti-oxidant Index” value turned out to be 1.14.

As for `COc1cc(C(=O)O)cc(OC)c1O` [Syringic Acid, syringic acid], in data set [2], the “Induction Time” value was found to be 3.1 h and the “Anti-oxidant Index” value was found to be 1.48.

For `C[C@H]1[C@H](C)CC[C@]2(C(=O)O)CC[C@]3(C)C(=CC[C@@H]4[C@@]5(C)CC[C@H](O)C(C)(C)[C@@H]5CC[C@]43C)[C@H]12` [Urosolic Acid, urosolic acid], in data set [1], the “inhibition of DNA synthesis / cell growth in HL-60 cells (in words)” value was “effectively inhibit DNA synthesis” and the “IC50, inhibition of DNA synthesis (tritiated thymidine uptake)” value is 1.5 ppm. Further, the “cytotoxicity (in words)” value in data set [3] is “marginal cytotoxicity”. The “Induction Time” value in data set [2] amounted to 2.2 h.

The values are drawn from patent publication US20050170022A1, “Extracts of blueberries with anti-oxidant and anti-cancer properties” (priority 2001, published 2005).
